Data on twelve molecules can be found in patent US4689340A, “Trihaloimidazole insecticide” (Sumitomo Chemical Company, Limited, priority 1985, dated 1987).

Series [1] has as its system German cockroach (Blattella germanica). Kind of series: Heating fumigant test in (70 cm)^3 glass chamber (Test Example 3). It is filed as in vivo, strain low susceptible to pyrethroids. The note with it: for mortality at 40 mg/m3, 40 mg/m3: Blattella germanica, 48 h. As for the experimental part: (§1) One hundred mg of each of the present compounds (1) to (7) is dissolved in a proper amount of acetone, and a porous ceramic plate of 4.0 cm×4.0cm×1.2 cm (thick) is impregnated with this solution to obtain the heating fumigant of each compound.
Four polyethylene cups (inside diameter, 10 cm; height, 8 cm) coated with butter at the inside surface were set at the four corners, respectively, of the bottom of a (70 cm)^3 glass chamber (0.34 m^3). Ten male adults per group of German cockroach (Blattella germanica) which belongs to a strain low susceptible to pyrethroids, were liberated in each of two polyethylene cups, and 10 female adults per group of the insect were liberated in each of the remaining two. An electric heater was set at the center of the bottom of the glass chamber, and each of the porous ceramic plates impregnating the present compounds and the control according to Formulation example 8 (13.7 mg/plate: 40 mg/m^3), was placed thereon. The plate was heated to about 200° C. by applying current for 20 minutes. The number of knocked-down insects with the lapse of time was examined to obtain KT50 (50% knocked-down time). Eighty minutes after current application was started, the cups containing the test insects were taken out of the chamber, and the test insects were bred on water and bait. After two days, the number of the dead and alive was examined to obtain a mortality.

For series [2], the system named is German cockroach (Blattela germanica). Nature of the series: Oil spray direct spray knock-down test, susceptible strain (Test Example 5). It counts as in vivo. The note with it: 0.6 ml of 0.1% oil spray. An excerpt: (§2) […] of the present compound (1), 2 parts of xylene and 97.8 parts of kerosene are mixed to obtain an oil spray.
(§3) Two groups of five male and five femlae adults per group of German cockroach (Blattela germanica), one group belonging to a susceptible strain and the other belonging to a strain low susceptible to pyrethroids,were liberated in a polyethylene cup of 9 cm in diameter thinly coated with vaseline at the inside surface. After covering the cup with a 16-mesh nylon gauze, the cup was placed on the bottom of a glass cylinder (inside diameter, 10 cm; height, 37 cm). Thereafter 0.6 ml of each of the 0.1% oil sprays of the present compounds and the control, prepared according to Formulation example 1, was directly sprayed onto the adults by means of a spray gun under 0.6 atmospheric pressure from the top of the cylinder. The number of knocked-down insects with the lapse of time was counted to obtain KT50 value (50% knocked-down time) (two replications).

Series [3] has the same test system. Kind of series: Oil spray direct spray knock-down test, strain low susceptible to pyrethroids (Test Example 5). The note with it: 0.6 ml of 0.1% oil spray. It counts as in vivo.
Excerpt: as §2, §3

The test system of series [4] is German cockroach (Blattella germanica). Kind of series: Insecticidal activity test to German cockroach, topical application (Test Example 1-2). It counts as in vivo, strain low susceptible to pyrethroids. The note with it: 48 h, read-out: Insecticidal activity on German cockroaches LD50 value (b). As for the experimental part:
(§4) The present compounds and the control were each diluted with corn oil to prescribed concentrations, and the dilute solutions obtained were forcedly administered to the stomach of six-week old male mice of ICR strain weighing 24 to 31 g, to which no food had been given for about 20 hours, at a rate of 0.1 ml/10 g of body weight. […] The number of the dead and alive was examined by seven day's observation to obtain LD50 value (50% lethal dosage) (5 mice per group). 1-2 Insecticidal activity test to German cockroach
The present compounds and the control were each diluted with acetone to prescribed concentrations and topically applied to the ventral thorax of the male adults of German cockroach (Blattella germanica) which belong to a strain low susceptible to pyrethroids, at a rate of 1 μl/adult. After application, the adults were bred on bait and water in a polyethylene cup. After two days, the number of the dead and alive was examined to obtain LD50 value (10 adults per group; two replications).

Series [5] deals with smoky brown cockroach (Periplaneta fuliginosa). Nature of the series: Topical application insecticidal test on smoky brown cockroach (Test Example 2). It is filed as in vivo. The note with it: Validiblatta fuliginosa, 48 h. As to the method:
The present compounds and the control were each diluted with acetone and topically applied to the ventral thorax of the male adults of smoky brown cockroach (Periplaneta fuliginosa) at a rate of 10μg a.i./adult. After application, the adults were bred on bait and water in a polyethylene cup. After two days, the number of the dead and alive was examined to obtain a mortality (5 adults per group; two replications).

Series [6] has as its system German cockroaches (Blattella germanica). Kind of series: Heating fumigant test in (183 cm)^3 Peet Grady's chamber (Test Example 4). It counts as in vivo, strain low susceptible to pyrethroids. The note with it: for mortality at 10 mg/m3, 10 mg/m3: Blattella germanica, 72 h. As for the experimental part:
as §1
At the bottom of a (183 cm)^3 Peet Grady's chamber (6.1 m^3) were placed three polyethylene cups (inside diameter, 10 cm; height, 8 cm) coated with butter at the inside surface, and 20 adult German cockroaches (10 males and 10 females) (Blattella germanica), which belong to a strain low susceptible to pyrethroids were liberated in each cup. An electric heater was set at the center of the bottom of the chamber, and each of the porous ceramic plates impregnated with the present compounds and the control according to Formulation example 8 (61 mg/plate: 10 mg/m^3), was placed thereon. The plate was heated to about 200° C. by applying current for 70 minutes. The number of knocked-down insects with the lapse of time was examined to obtain KT50 value (50% knocked-downtime). Eighty minutes after current application was started, the cups containing the test insects were taken out of the chamber, and the test insects were bred on water and bait. After three days, the number of the dead and alive was examined to obtain a mortality.

Series [7] in a line: Acute Oral Toxicity Test to Mice (Test Example 1-1). The note with it: mouse, in vivo; for selectivity ratio: po, mice oral LD50 (a) / German cockroach LD50 (b), read-out: Safety coefficient (a)/(b); for LD50 at 168 h: oral (stomach), corn oil, male ICR mice, 7 days' observation. As for the experimental part:
1-1 Acute Oral Toxicity Test to Mice
as §4
The results of the acute oral toxicity test to mice and insecticidal activity test to German cockroaches on the test compounds are shown in Table 3. It is apparent from the table that the present compounds have the characteristics that the toxicity to the warm-blooded animal is low and the insecticidal activity on the insect pest is high. In order to make this characteristics clearer, the following safety coefficient was obtained from the test results. [formula]

In another series the test system is cockroach. Nature of the series: Insecticidal activity as cockroach-controlling insecticides (general statement). It is filed as in vivo. The settings on record: among the listed cockroach-controlling compounds.
[8] abbreviates: ceramic plate heating fumigant, 13.7 mg/plate: 40 mg/m^3, 0.34 m^3 chamber, after two days, read-out: Mortality (%).
[9] abbreviates: ceramic plate heating fumigant, 13.7 mg/plate: 40 mg/m^3, 0.34 m^3 chamber.
[10] abbreviates: ceramic plate heating fumigant, 61 mg/plate: 10 mg/m^3, 6.1 m^3 chamber, after three days, read-out: Mortality (%).
[11] abbreviates: ceramic plate heating fumigant, 61 mg/plate: 10 mg/m^3, 6.1 m^3 chamber.

Read-outs that look alike come from different tables or passages of the source. Where only a bound is given, the exact number is not on record here.

On to `ClCCCCOCn1c(Br)nc(Br)c1Br` [(4), 1-(4-chlorobutoxymethyl)-2,4,5-tribromoimidazole], for which the mortality at 40 mg/m3, 40 mg/m3 in series [1] (setting [8]) came to 90%. Further, in series [1] (setting [9]), the “KT50 value (50% knocked-down time)” value came out at 58 min. Further, the “Susceptible strain KT50 value” in series [2] was 2.1 min. In series [3], the “Strain low susceptible to pyrethroids KT50 value” (shortened to “Strain low susceptible”) was “≈ 0.5 minute”.

As to `CCCCCOCn1c(Cl)nc(Cl)c1Cl` [(B)], the median lethal dose (LD50) in series [4] was over 20 mg/kg. Moreover, the mortality at 0.01 mg in series [5] (10μg a.i./adult, male adults, after two days, read-out: Mortality (%)) worked out at 40%. For the same molecule, the mortality at 40 mg/m3, 40 mg/m3 in series [1] (setting [8]) was 47.5%. Also, the “KT50 value (50% knocked-down time)” value in series [1] (setting [9]) and in series [6] (setting [11]) was over 80 min each time. For the same molecule, the mortality at 10 mg/m3, 10 mg/m3 in series [6] (setting [10]) stood at 0%. Also, the “Susceptible strain KT50 value” in series [2] is over 20 min. Also, the “Strain low susceptible” value in series [3] is over 20 min.

Regarding `BrCCCCCCOCn1c(Br)nc(Br)c1Br` [(7), 1-(6-bromohexyloxymethyl)-2,4,5-tribromoimidazole], the mortality at 40 mg/m3, 40 mg/m3 in series [1] (setting [8]) came out at 92.5%. Moreover, the “KT50 value (50% knocked-down time)” value in series [1] (setting [9]) amounted to 65 min. Further, the “Susceptible strain KT50 value” in series [2] was found to be 2.3 min. The “Strain low susceptible” value in series [3] was found to be 0.72 min.

As for `ClCCCCOCn1c(Cl)nc(Cl)c1Cl` [(2), 1-(4-chlorobutoxymethyl)-2,4,5-trichloroimidazole], in series [7], the selectivity ratio is over 50 and the LD50 at 168 h is over 300 mg/kg. For the same molecule, the LD50 in series [4] was 6.2 mg/kg. Further, the mortality at 0.01 mg in series [5] stood at 100%. This molecule showed a mortality at 40 mg/m3, 40 mg/m3 in series [1] of 100%. Further, the “KT50 value (50% knocked-down time)” value in series [1] (setting [9]) was 41 min. For the same molecule, in series [6], the mortality at 10 mg/m3, 10 mg/m3 amounted to 80%. The “KT50 value (50% knocked-down time)” value in series [6] (setting [11]) stood at 63 min.

On to `BrCCOCn1c(Br)nc(Br)c1Br` [(C)], for which, in series [7], the selectivity ratio was found to be 16 and the LD50 at 168 h was 110 mg/kg. Further, in series [4], the LD50 amounted to 7 mg/kg. For the same molecule, the mortality at 10 mg/m3, 10 mg/m3 in series [6] stood at 40%. In addition, in series [6] (setting [11]), the “KT50 value (50% knocked-down time)” value is over 80 min. In series [2], the “Susceptible strain KT50 value” is over 20 min. In addition, the “Strain low susceptible” value in series [3] was at least 20 min.

As to `Clc1nc(Cl)n(COCCCCBr)c1Cl` [(1), 1-(4-bromobutoxymethyl)-2,4,5-trichloroimidazole], in series [7], the selectivity ratio was over 50 and the LD50 at 168 h is over 300 mg/kg. Further, the LD50 in series [4] was determined as 6.4 mg/kg. Besides, in series [5], the mortality at 0.01 mg turned out to be 80%. In series [1], this molecule registered a mortality at 40 mg/m3, 40 mg/m3 of 100%. In series [1] (setting [9]), the “KT50 value (50% knocked-down time)” value was determined as 28 min. For the same molecule, the mortality at 10 mg/m3, 10 mg/m3 in series [6] is 100%. Further, the “KT50 value (50% knocked-down time)” value in series [6] (setting [11]) amounted to 38 min. For the same molecule, the “Susceptible strain KT50 value” in series [2] is 1.1 min. Moreover, in series [3], the “Strain low susceptible” value was found to be 0.70 min. Besides, the “insecticidal activity (in words)” value in the series on cockroach is listed as “most superior insecticidal activity”.

Take `Clc1nc(Cl)n(COCCCCCCBr)c1Cl` [(6), 1-(6-bromohexyloxymethyl)-2,4,5-trichloroimidazole]: the mortality at 10 mg/m3, 10 mg/m3 in series [6] (setting [10]) was found to be 95%. Further, the “KT50 value (50% knocked-down time)” value in series [6] (setting [11]) was 41 min.

With `CNC(=O)Oc1ccccc1OC(C)C` [(E), Propoxur], in series [7], the selectivity ratio is 5.6 and the LD50 at 168 h is 39 mg/kg. In addition, the 50% lethal dose (LD50) in series [4] turned out to be 7 mg/kg. Moreover, the mortality at 40 mg/m3, 40 mg/m3 in series [1] (setting [8]) came to 0%. In addition, the “KT50 value (50% knocked-down time)” value in series [1] (setting [9]) is over 80 min. In series [6] (setting [10]), the mortality at 10 mg/m3, 10 mg/m3 is 0%. Besides, the “KT50 value (50% knocked-down time)” value in series [6] (setting [11]) was over 80 min. For the same molecule, in series [2], the “Susceptible strain KT50 value” came to 6.9 min. For the same molecule, the “Strain low susceptible” value in series [3] was determined as 10 min.

Take `ClCCOCn1c(Br)nc(Br)c1Br` [(D)]: in series [7], the selectivity ratio came out at 18 and the LD50 at 168 h is 170 mg/kg. For the same molecule, the LD50 in series [4] stood at 9.4 mg/kg. Moreover, in series [6], the mortality at 10 mg/m3, 10 mg/m3 was determined as 3%. The “KT50 value (50% knocked-down time)” value in series [6] (setting [11]) is over 80 min. The “Susceptible strain KT50 value” in series [2] is over 20 min. In addition, the “Strain low susceptible” value in series [3] was “≈ 20 minute”.

On to `Clc1nc(Cl)n(COCCCCCBr)c1Cl` [(5)], for which the mortality at 40 mg/m3, 40 mg/m3 in series [1] (setting [8]) came out at 87.5%. Moreover, the “KT50 value (50% knocked-down time)” value in series [1] (setting [9]) worked out at 68 min.

Take `CCCCOCn1c(Cl)nc(Cl)c1Cl` [(A)]: in series [4], the LD50 is over 10 mg/kg. Further, the mortality at 10 mg/m3, 10 mg/m3 in series [6] (setting [10]) was found to be 8%. Also, the “KT50 value (50% knocked-down time)” value in series [6] (setting [11]) was over 80 min. Also, in series [2], the “Susceptible strain KT50 value” was over 20 min. Also, the “Strain low susceptible” value in series [3] was over 20 min.

For the molecule `BrCCCCOCn1c(Br)nc(Br)c1Br` [(3), 1-(4-bromobutoxymethyl)-2,4,5-tribromoimidazole], the mortality at 40 mg/m3, 40 mg/m3 in series [1] (setting [8]) was 100%. In addition, the “KT50 value (50% knocked-down time)” value in series [1] (setting [9]) was found to be 45 min; in series [6] (setting [11]), 77 min. Moreover, the mortality at 10 mg/m3, 10 mg/m3 in series [6] (setting [10]) came to 90%. The “Susceptible strain KT50 value” in series [2] was determined as 1.1 min. In series [3], the “Strain low susceptible” value worked out at 1.2 min.

By mortality is commonly meant the share of the test organisms that died. The LD50 is the dose expected to kill half of the subjects tested.
